The structures appear in SMILES notation.

One test deals with T1, UDP-glucose dehydrogenase (Homo sapiens, UniProt O60701).
T1 sequence (O60701 1-494): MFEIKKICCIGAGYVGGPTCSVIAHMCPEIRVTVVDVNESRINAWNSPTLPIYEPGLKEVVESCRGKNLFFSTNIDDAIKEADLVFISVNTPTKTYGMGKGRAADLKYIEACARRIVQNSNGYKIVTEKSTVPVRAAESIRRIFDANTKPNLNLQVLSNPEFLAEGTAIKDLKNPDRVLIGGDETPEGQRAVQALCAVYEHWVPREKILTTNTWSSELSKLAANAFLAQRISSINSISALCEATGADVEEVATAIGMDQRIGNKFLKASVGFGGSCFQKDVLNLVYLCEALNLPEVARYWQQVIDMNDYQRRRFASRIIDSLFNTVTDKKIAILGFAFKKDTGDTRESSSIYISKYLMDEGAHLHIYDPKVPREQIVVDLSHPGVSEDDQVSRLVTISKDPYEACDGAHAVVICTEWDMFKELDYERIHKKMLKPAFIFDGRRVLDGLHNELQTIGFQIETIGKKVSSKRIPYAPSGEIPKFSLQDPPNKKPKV
Kind of test: High throughput screening for inhibitors of UDP-glucose dehydrogenase (NADH fluorescence). In kind it is biochemical.
Details: not given
As for `O=C([O-])c1ccccc1-c1c2cc(Br)c(=O)cc-2oc2[c]([Hg][OH])c([O-])c(Br)cc12.[Na+].[Na+]`, the “POC (Percent of Controls)” value was found to be 97%.

Still in this test, the particulars now being: compound plates 20 μL/well of 25 μg/mL compound in 2.5% DMSO; relative to DMSO negative and UDP-xylose positive controls; higher POC = more inhibitory; read-out: POC (Percent of Controls).
On to `COc1ccc2[nH]cc(CCNC(=O)c3ccc([N+](=O)[O-])cc3)c2c1`, for which the inhibition at 25 µg/mL (stock) came to 61%.

With `CCN(CC)c1ccc(N)c(C)c1`, the inhibition at 25 µg/mL (stock) came out at 46%.

As for `CCSc1sc(SC#N)cc1SC#N`, the inhibition at 25 µg/mL (stock) was 83%.

Turning to `CC(C)N(CCC#N)S(=O)(=O)c1ccccc1[N+](=O)[O-]`, the inhibition at 25 µg/mL (stock) amounted to 81%.

With `c1ccc(CNc2nc(-c3ccccc3)[n+](-c3ccccc3)s2)cc1`, the inhibition at 25 µg/mL (stock) came out at 106%.

With `N#CSC(C#N)Cc1ccccc1` (stereo not shown), the inhibition at 25 µg/mL (stock) was 59%.

As for `N#CSC(C#N)Cc1cccc(Cl)c1` (stereo not shown), the inhibition at 25 µg/mL (stock) amounted to 74%.

In the case of `CCc1ccc(NC(Nc2ccc(CC)cc2)=C(S(=O)(=O)CC)S(=O)(=O)CC)cc1`, the inhibition at 25 µg/mL (stock) worked out at 47%.

Regarding `N#CSC(C#N)Cc1ccc([N+](=O)[O-])cc1` (stereo not shown), the inhibition at 25 µg/mL (stock) stood at 80%.

For the compound `N#CSC(C#N)Cc1cccc([N+](=O)[O-])c1` (stereo not shown), the inhibition at 25 µg/mL (stock) is 88%.

Consider `Cc1ccc(S(=O)(=O)Nc2cccc3ccc(-n4nc(C)cc4C)nc23)cc1`, for which the inhibition at 25 µg/mL (stock) amounted to 148%.

Consider `N#Cc1ccc(Oc2ccc(C(=O)Nc3ccccc3)cc2)cc1`, for which the inhibition at 25 µg/mL (stock) stood at 54%.

For the compound `Nc1ccc(Cc2ccc(N)c(O)c2)cc1O`, the inhibition at 25 µg/mL (stock) worked out at 62%.

As for `CC1(C)CC(=O)C2=C(C1)OC(N)=C(C#N)C21CCCC1`, the inhibition at 25 µg/mL (stock) came to 126%.

In the case of `Nc1ccccc1S(=O)(=O)Nc1cccc2cccnc12`, the inhibition at 25 µg/mL (stock) stood at 72%.

Take `Nc1ccc(S(=O)(=O)c2ccc(N)c(N)c2)cc1N`: the inhibition at 25 µg/mL (stock) came to 50%.

As for `Cc1cc(C)n(-c2ccc3cccc([N+](=O)[O-])c3n2)n1`, the inhibition at 25 µg/mL (stock) was found to be 88%.

In the case of `Nc1ccc(C(=O)c2ccc(N)c(N)c2)cc1N`, the inhibition at 25 µg/mL (stock) stood at 46%.

With `O=C(Nc1ccc([N+](=O)[O-])cc1)c1ccc(Br)o1`, the inhibition at 25 µg/mL (stock) turned out to be 62%.

Turning to `COc1ccc(NS(=O)(=O)c2cc(C(=O)Nc3ccc(C(=O)O)cc3)ccc2C)cc1`, the inhibition at 25 µg/mL (stock) turned out to be 61%.

In the case of `COc1ccc(-c2nnc(N)o2)cc1`, the inhibition at 25 µg/mL (stock) was 86%.

As for `CCCCC(NC(=O)c1cccc(Br)c1)C(=O)O` (stereo not shown), the inhibition at 25 µg/mL (stock) turned out to be 103%.

`COc1cc(/C=C2\C(C)=C([N+](=O)[O-])CS2(=O)=O)ccc1O`: the inhibition at 25 µg/mL (stock) came out at 65%.

With `COc1cc(/C=C(\C)[N+](=O)[O-])cc(OC)c1OC`, the inhibition at 25 µg/mL (stock) is 61%.

For the compound `Cc1sc(NC(=O)Cc2ccc([N+](=O)[O-])cc2)c(C(N)=O)c1C`, the inhibition at 25 µg/mL (stock) amounted to 75%.

With `CC/C(=C/c1ccc(O)c(OC)c1)[N+](=O)[O-]`, the inhibition at 25 µg/mL (stock) is 63%.

Regarding `COCc1cc(C(C)(C)C)c(O)c(O)c1C(C)(C)C`, the inhibition at 25 µg/mL (stock) came out at 56%.

On to `CN1CCc2c(sc(N)c2C#N)C1`, for which the inhibition at 25 µg/mL (stock) was determined as 55%.

Consider `Nc1ncc(C2=C(Cl)C(O)C(Cl)=C(Cl)C2O)s1` (stereo not shown), for which the inhibition at 25 µg/mL (stock) came out at 71%.

For `N#CSc1cnc(NC2CCCCC2)s1`, the inhibition at 25 µg/mL (stock) amounted to 66%.

Turning to `O=C(/C=C/c1ccco1)c1ccc(NC(=O)c2ccco2)cc1`, the inhibition at 25 µg/mL (stock) was found to be 55%.

For `Cc1ccccc1-c1nnc(N)s1`, the inhibition at 25 µg/mL (stock) was determined as 51%.

`CC(=O)C1=C(C)NC(SCc2cccc([N+](=O)[O-])c2)=C(C#N)C1c1cccnc1` (stereo not shown): the inhibition at 25 µg/mL (stock) worked out at 51%.

As to `CN(C)c1ccc(NC(=O)C2C3C=CC(C3)C2C(=O)O)cc1` (stereo not shown), the inhibition at 25 µg/mL (stock) turned out to be 56%.

For the compound `CCOc1ccc(N/C(=N/N)c2ccc3ccccc3n2)cc1`, the inhibition at 25 µg/mL (stock) stood at 66%.

On to `O=C(Cc1ccccc1)c1ccc(O)c(O)c1O`, for which the inhibition at 25 µg/mL (stock) stood at 46%.

Take `COc1ccc(-c2ccc(CCC(=O)O)n2-c2ccc(O)cc2)cc1`: the inhibition at 25 µg/mL (stock) is 57%.

Turning to `Cc1[nH]nc(-c2ccc(O)c(O)c2O)c1Oc1ccccc1`, the inhibition at 25 µg/mL (stock) amounted to 46%.

For `COc1ccc(-c2ccc(CCC(=O)O)o2)cc1`, the inhibition at 25 µg/mL (stock) is 57%.

On to `COc1ccc(-c2ccc(CCC(=O)O)[nH]2)cc1`, for which the inhibition at 25 µg/mL (stock) came to 62%.

For the compound `Cc1ccc(-c2ccc(CCC(=O)O)o2)cc1`, the inhibition at 25 µg/mL (stock) worked out at 82%.

For the compound `O=C1CC(Sc2ccccn2)C(=O)N1c1cccc(Cl)c1Cl` (stereo not shown), the inhibition at 25 µg/mL (stock) worked out at 49%.

Take `O=[N+]([O-])c1ccc(SCc2ccco2)c2cccnc12`: the inhibition at 25 µg/mL (stock) amounted to 57%.

As to `COCCN1C(=O)C(O)=C(C(=O)c2ccc(OC)c(C)c2)C1c1ccncc1` (stereo not shown), the inhibition at 25 µg/mL (stock) was 51%.

For `CC(C)(C)C(=O)NCCNc1ccc([N+](=O)[O-])cc1`, the inhibition at 25 µg/mL (stock) worked out at 47%.

For the compound `Cc1cc(O)ccc1NC(=O)c1ccccc1`, the inhibition at 25 µg/mL (stock) came out at 46%.

As to `C[n+]1sc(Nc2ccccc2)nc1-c1ccccc1`, the inhibition at 25 µg/mL (stock) was 58%.

Take `O=C(Nc1ccc2nc(-c3ccco3)c(-c3ccco3)nc2c1)N1CCOCC1`: the inhibition at 25 µg/mL (stock) was 47%.

For the compound `Cc1ccc(OCCn2ccnc2)cc1`, the inhibition at 25 µg/mL (stock) was determined as 85%.

For `COc1ccc(OC)c(N2C(=O)CC(Sc3nc4ccccc4s3)C2=O)c1` (stereo not shown), the inhibition at 25 µg/mL (stock) stood at 68%.

With `Cc1ccc(-c2csc(N)c2C(N)=O)cc1C`, the inhibition at 25 µg/mL (stock) is 47%.

With `O=C(Nc1nc2c(s1)CCCC2)c1cccs1`, the inhibition at 25 µg/mL (stock) turned out to be 45%.

Regarding `O=C(O)COc1cccc(/C=C/[N+](=O)[O-])c1`, the inhibition at 25 µg/mL (stock) came out at 67%.

For the compound `NC(=O)c1c(-c2cccs2)csc1N`, the inhibition at 25 µg/mL (stock) amounted to 46%.

With `CCc1cccc(NC(=O)NC2CCCCC2)c1`, the inhibition at 25 µg/mL (stock) came out at 45%.

For `Cc1nnc(SC2CC(=O)N(c3ccc(Br)cc3)C2=O)s1` (stereo not shown), the inhibition at 25 µg/mL (stock) was 47%.

As for `Cc1nnc(SC2CC(=O)N(c3ccc(Oc4ccccc4)cc3)C2=O)s1` (stereo not shown), the inhibition at 25 µg/mL (stock) is 58%.

Consider `COc1cc(-c2ccc(NC(=O)c3ccoc3C)c(OC)c2)ccc1NC(=O)c1ccoc1C`, for which the inhibition at 25 µg/mL (stock) turned out to be 45%.

Regarding `CCC(=O)Nc1ccc(C(=O)Nc2ccc(Cl)cc2C(=O)O)cc1`, the inhibition at 25 µg/mL (stock) worked out at 50%.

On to `O=C(CN1CCCCC1)Nc1ccc(S(=O)(=O)N2CCOCC2)cc1`, for which the inhibition at 25 µg/mL (stock) came to 48%.

Consider `O=c1oc2cc(Br)c(O)c(Br)c2s1`, for which the inhibition at 25 µg/mL (stock) is 51%.

Regarding `COC(=O)Oc1c(Cl)cc2oc(=O)sc2c1[N+](=O)[O-]`, the inhibition at 25 µg/mL (stock) came to 73%.

On to `O=C(O[C@@H]1Cc2c(O)cc(O)cc2O[C@@H]1c1cc(O)c(O)c(O)c1-c1c([C@H]2Oc3cc(O)cc(O)c3C[C@H]2OC(=O)c2cc(O)c(O)c(O)c2)cc(O)c(O)c1O)c1cc(O)c(O)c(O)c1`, for which the inhibition at 25 µg/mL (stock) amounted to 73%.

As to `O=C(O[C@@H]1Cc2c(O)cc(O)cc2O[C@@H]1c1cc(O)c(=O)c2c(O)c(O)cc([C@H]3Oc4cc(O)cc(O)c4C[C@H]3OC(=O)c3cc(O)c(O)c(O)c3)c2c1)c1cc(O)c(O)c(O)c1`, the inhibition at 25 µg/mL (stock) turned out to be 59%.

Turning to `O=C(O[C@@H]1Cc2c(O)cc(O)cc2O[C@@H]1c1cc(O)c(O)c(O)c1-c1c([C@H]2Oc3cc(O)cc(O)c3C[C@H]2O)cc(O)c(O)c1O)c1cc(O)c(O)c(O)c1`, the inhibition at 25 µg/mL (stock) was 83%.

Regarding `O=C(Oc1cc(O)cc2c1C[C@@H](OC(=O)c1cc(O)c(O)c(O)c1)[C@@H](c1cc(O)c(O)c(O)c1)O2)c1cc(O)c(O)c(O)c1`, the inhibition at 25 µg/mL (stock) came out at 67%.

On to `O=c1c(O)cc([C@H]2Oc3cc(O)cc(O)c3C[C@H]2O)cc2c([C@H]3Oc4cc(O)cc(O)c4C[C@H]3O)cc(O)c(O)c12`, for which the inhibition at 25 µg/mL (stock) came to 83%.

On to `O=C(O[C@@H]1Cc2c(O)cc(O)cc2O[C@@H]1c1cc(O)c(O)c(O)c1)c1cc(O)c(O)c(O)c1`, for which the inhibition at 25 µg/mL (stock) worked out at 76%.

Regarding `O=C(O[C@@H]1Cc2c(O)cc(O)cc2O[C@@H]1c1cc(O)c(=O)c2c(O)c(O)cc([C@H]3Oc4cc(O)cc(O)c4C[C@H]3O)c2c1)c1cc(O)c(O)c(O)c1`, the inhibition at 25 µg/mL (stock) was 76%.

Take `O=C(O)c1cc(O)c(O)c(O)c1`: the inhibition at 25 µg/mL (stock) was 71%.

With `O=c1c(O)cccc2ccc(O)c(O)c12`, the inhibition at 25 µg/mL (stock) stood at 73%.

Consider `CC(=O)Oc1cc(-c2coc3cc(OC(C)=O)c(OC(C)=O)c(OC(C)=O)c3c2=O)cc(OC(C)=O)c1OC(C)=O`, for which the inhibition at 25 µg/mL (stock) is 98%.

On to `O=c1c(-c2cc(O)c(O)c(O)c2)coc2cc(O)c(O)c(O)c12`, for which the inhibition at 25 µg/mL (stock) was 98%.

For the compound `O=c1c(O)cccc2c([C@H]3Oc4cc(O)cc(O)c4C[C@H]3O)cc(O)c(O)c12`, the inhibition at 25 µg/mL (stock) was 53%.

As for `O=c1c(O)c(-c2cc(O)c(O)c(O)c2)oc2cc(O)cc(O)c12`, the inhibition at 25 µg/mL (stock) turned out to be 91%.

Consider `O=C1c2ccc(O)cc2O[C@H](c2cc(O)c(O)c(O)c2)[C@H]1O`, for which the inhibition at 25 µg/mL (stock) turned out to be 96%.

As to `O=C(OC[C@H]1O[C@H](OC(=O)c2cc(O)c(O)c(OC(=O)c3cc(O)c(O)c(O)c3)c2)[C@H](OC(=O)c2cc(O)c(O)c(OC(=O)c3cc(O)c(O)c(O)c3)c2)[C@@H](OC(=O)c2cc(O)c(O)c(OC(=O)c3cc(O)c(O)c(O)c3)c2)[C@@H]1OC(=O)c1cc(O)c(O)c(OC(=O)c2cc(O)c(O)c(O)c2)c1)c1cc(O)c(O)c(OC(=O)c2cc(O)c(O)c(O)c2)c1`, the inhibition at 25 µg/mL (stock) came out at 69%.

`CC(C)c1cc2c(c(O)c1O)[C@@]1(C(=O)O)CCCC(C)(C)C1CC2` (stereo partly shown): the inhibition at 25 µg/mL (stock) was 66%.

The record behind these values is patent US11478457B2, “Castration-resistant prostate cancer” (priority 2015, dated 2022).
